One assay addresses HDAC1 (Homo sapiens, UniProt Q13547). Briefly: Test of HDAC activities, HDAC1 Fluorimetric Drug Discovery Assay Kit. It counts as biochemical. Details: purchased Enzolifesciences BML-AK511. The conditions noted are these: samples at 100, 1000, 10000 nM; 37° C. 60 minutes; fluorescence Ex 390, Em 460; read-out: HDAC inhibitory activities, HDAC1. The procedure:
(§1) The HDAC inhibitory activities of test materials were measured using the HDAC1 Fluorimetric Drug Discovery Assay Kit (Enzolifesciences: BML-AK511) and HDAC6 human recombinant (Calbiochem: 382180). In the HDAC1 assay, the samples were treated with concentrations of 100, 1000, and 10000 nM, and in the HDAC6 assay, the samples were treated with concentrations of 0.1, 1, 10, 100, and 1000 nM. After the treatment of the samples, the samples were reacted at 37° C. for 60 minutes, treated with a developer, and then reacted at 37° C. for 30 minutes. Then, the fluorescence intensity (Ex 390, Em 460) was measured using the FlexStation 3 (Molecular device).

The target in a further assay is T1, HDAC 6 (Homo sapiens, UniProt Q9UBN7).
T1 sequence (Q9UBN7 1-1215): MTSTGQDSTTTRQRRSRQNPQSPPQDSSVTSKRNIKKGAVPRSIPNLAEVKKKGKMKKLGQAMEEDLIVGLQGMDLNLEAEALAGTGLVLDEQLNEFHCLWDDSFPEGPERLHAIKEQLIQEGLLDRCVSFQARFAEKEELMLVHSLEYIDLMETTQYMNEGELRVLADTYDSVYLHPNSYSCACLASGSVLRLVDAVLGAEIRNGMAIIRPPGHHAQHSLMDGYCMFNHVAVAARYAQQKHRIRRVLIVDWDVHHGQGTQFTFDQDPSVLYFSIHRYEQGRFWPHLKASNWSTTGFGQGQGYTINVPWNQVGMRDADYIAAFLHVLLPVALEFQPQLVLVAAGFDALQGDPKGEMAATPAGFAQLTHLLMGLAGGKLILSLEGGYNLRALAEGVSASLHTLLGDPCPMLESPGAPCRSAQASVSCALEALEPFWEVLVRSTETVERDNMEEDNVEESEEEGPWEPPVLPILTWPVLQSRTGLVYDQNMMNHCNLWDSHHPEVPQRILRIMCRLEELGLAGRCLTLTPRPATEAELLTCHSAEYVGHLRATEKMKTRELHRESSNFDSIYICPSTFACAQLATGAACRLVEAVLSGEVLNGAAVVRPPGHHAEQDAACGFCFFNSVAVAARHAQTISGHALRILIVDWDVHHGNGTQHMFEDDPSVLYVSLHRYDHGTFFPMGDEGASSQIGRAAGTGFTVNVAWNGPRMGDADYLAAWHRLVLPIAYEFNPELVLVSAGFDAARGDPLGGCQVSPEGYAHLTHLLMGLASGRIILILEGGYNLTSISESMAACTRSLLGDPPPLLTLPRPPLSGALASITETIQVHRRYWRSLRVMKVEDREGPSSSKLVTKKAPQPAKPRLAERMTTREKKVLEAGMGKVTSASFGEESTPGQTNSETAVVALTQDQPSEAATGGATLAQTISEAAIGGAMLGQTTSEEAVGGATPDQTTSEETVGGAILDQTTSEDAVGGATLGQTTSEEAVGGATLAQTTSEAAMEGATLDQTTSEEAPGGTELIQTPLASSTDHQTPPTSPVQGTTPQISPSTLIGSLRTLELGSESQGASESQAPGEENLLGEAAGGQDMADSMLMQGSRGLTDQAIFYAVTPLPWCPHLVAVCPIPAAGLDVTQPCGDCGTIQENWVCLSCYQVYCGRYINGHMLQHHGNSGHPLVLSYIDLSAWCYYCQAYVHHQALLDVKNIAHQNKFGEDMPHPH
Nature of the assay: Test of HDAC activities, HDAC6 (fluorimetric). It counts as biochemical. Details: purchased Calbiochem 382180. The note with it: samples at 0.1, 1, 10, 100, 1000 nM; 37° C. 60 minutes; fluorescence Ex 390, Em 460; read-out: HDAC inhibitory activities, HDAC6. How it is done: as §1

Chain of HDAC1 (Q13547 whole entry): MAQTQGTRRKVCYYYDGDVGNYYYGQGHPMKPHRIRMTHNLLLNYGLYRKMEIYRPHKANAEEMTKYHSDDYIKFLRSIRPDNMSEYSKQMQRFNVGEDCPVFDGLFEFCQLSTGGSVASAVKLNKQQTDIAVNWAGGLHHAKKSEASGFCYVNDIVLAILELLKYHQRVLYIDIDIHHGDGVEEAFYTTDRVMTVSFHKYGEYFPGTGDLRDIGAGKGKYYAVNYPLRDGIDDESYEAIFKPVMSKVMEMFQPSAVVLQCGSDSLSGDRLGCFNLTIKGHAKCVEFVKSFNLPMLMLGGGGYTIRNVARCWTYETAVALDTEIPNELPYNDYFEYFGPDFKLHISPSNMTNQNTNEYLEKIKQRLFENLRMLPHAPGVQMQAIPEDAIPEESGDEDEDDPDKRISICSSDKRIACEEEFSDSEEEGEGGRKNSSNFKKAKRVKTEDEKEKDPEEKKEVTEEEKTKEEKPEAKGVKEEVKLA

On to `CN1CCN(C(=O)N(Cc2ccc(C(=O)NO)cc2)c2ccc(F)cc2F)CC1` [Compound 416, N-(2,4-difluorophenyl)-N-(4-(hydroxycarbamoyl)benzyl)-4-methylpiperazine-1-carboxamide], for which the figures for the IC50 on HDAC1 and at HDAC 6 were 930 nM and 2 nM, respectively.

Turning to `O=C(NO)c1ccc(CN(C(=O)N2CCOCC2)c2cccc(-c3ccc4c(c3)OCO4)c2)cc1` [Compound 418, N-(3-(benzo[d][1,3]dioxol-5-yl)phenyl)-N-(4-(hydroxycarbamoyl)benzyl)morpholine-4-carboxamide], the figures for the IC50 at HDAC1 and on HDAC 6 were 190 nM and 2 nM, respectively.

As for `CC(=O)N1CC=C(c2cccc(N(Cc3ccc(C(=O)NO)cc3)C(=O)N3CCOCC3)c2)CC1` [Compound 419, N-(3-(1-acetyl-1,2,3,6-tetrahydropyridin-4-yl)phenyl)-N-(4-(hydroxycarbamoyl)benzyl) morpholine-4-carboxamide], the IC50 on HDAC1 was determined as 460 nM; on HDAC 6, 5 nM.

As for `CS(=O)(=O)N1CC=C(c2cccc(N(Cc3ccc(C(=O)NO)cc3)C(=O)N3CCOCC3)c2)CC1` [Compound 420, N-(4-(hydroxycarbamoyl)benzyl)-N-(3-(1-(methylsulfonyl)-1,2,3,6-tetrahydropyridin-4-yl)phenyl)morpholine-4-carboxamide], the IC50 was 310 nM at HDAC1 and 4 nM at HDAC 6.

For the compound `Cc1ccc(N(Cc2ccc(C(=O)NO)cc2)C(=O)N2CCCCC2)c(F)c1` [Compound 438, N-(2-fluoro-4-methylphenyl)-N-(4-(hydroxycarbamoyl)benzyl)piperidine-1-carboxamide], the IC50 at HDAC1 turned out to be 1740 nM; at HDAC 6 it was 4 nM.

With `Cc1ccc(N(Cc2ccc(C(=O)NO)cc2)C(=O)N2CCOCC2)c(F)c1` [Compound 439, N-(2-fluoro-4-methylphenyl)-N-(4-(hydroxycarbamoyl)benzyl)morpholine-4-carboxamide], the values for the IC50 on HDAC1 and on HDAC 6 were 632 nM and 2 nM, respectively.

On to `Cc1ccc(N(Cc2ccc(C(=O)NO)cc2)C(=O)N2CC(C)OC(C)C2)c(F)c1` (stereo not shown) [Compound 440, N-(2-fluoro-4-methylphenyl)-N-(4-(hydroxycarbamoyl)benzyl)-2,6-dimethylmorpholine-4-carboxamide], for which the IC50 on HDAC1 stood at 988 nM; on HDAC 6, 2 nM.

In the case of `Cc1ccc(N(Cc2ccc(C(=O)NO)cc2)C(=O)N2CCN(C)CC2)c(F)c1` [Compound 441, N-(2-fluoro-4-methylphenyl)-N-(4-(hydroxycarbamoyl)benzyl)-4-methylpiperazine-1-carboxamide], the IC50 on HDAC1 was 447 nM; at HDAC 6, 2 nM.

Turning to `CC(=O)N1CCCN(C(=O)N(Cc2ccc(C(=O)NO)cc2)c2ccccn2)CC1` [Compound 450, 4-acetyl-N-(4-(hydroxycarbamoyl)benzyl)-N-(pyridin-2-yl)-1,4-diazepane-1-carboxamide], the IC50 at HDAC1 was determined as 6400 nM; on HDAC 6, 5 nM.

For the compound `O=C(NO)c1ccc(CN(C(=O)N2CCN(C(=O)C3CC3)CC2)c2ccccn2)cc1` [Compound 451, 4-(cyclopropanecarbonyl)-N-(4-(hydroxycarbamoyl)benzyl)-N-(pyridin-2-yl)piperazine-1-carboxamide], the IC50 on HDAC1 was 4810 nM; at HDAC 6, 5 nM.

For the compound `CCN1CCN(C(=O)N(Cc2ccc(C(=O)NO)cc2)c2ccc(C)cc2F)CC1` [Compound 453, 4-ethyl-N-(2-fluoro-4-methylphenyl)-N-(4-(hydroxycarbamoyl)benzyl)piperazine-1-carboxamide], the IC50 at HDAC1 amounted to 604 nM; at HDAC 6, 3 nM.

As for `COc1ccccc1N1CCN(C(=O)N(Cc2ccc(C(=O)NO)cc2)c2ccc(C)cc2F)CC1` [Compound 454, N-(2-fluoro-4-methylphenyl)-N-(4-(hydroxycarbamoyl)benzyl)-4-(2-methoxyphenyl)piperazine-1-carboxamide], the IC50 at HDAC1 was 1320 nM; at HDAC 6, 5 nM.

`Cc1ccc(N(Cc2ccc(C(=O)NO)cc2)C(=O)N2CCN(c3ccc(F)cc3)CC2)c(F)c1` [Compound 455, N-(2-fluoro-4-methylphenyl)-4-(4-fluorophenyl)-N-(4-(hydroxycarbamoyl)benzyl)piperazine-1-carboxamide]: the IC50 at HDAC1 turned out to be 1980 nM; at HDAC 6, 6 nM.

For `O=C(NO)c1ccc(CN(C(=O)N2CCCCC2)c2ccc(F)c(Cl)c2)cc1` [Compound 456, N-(3-chloro-4-fluorophenyl)-N-(4-(hydroxycarbamoyl)benzyl)piperidine-1-carboxamide], the IC50 on HDAC1 came to 1270 nM; at HDAC 6, 3 nM.

On to `CC1CCN(C(=O)N(Cc2ccc(C(=O)NO)cc2)c2ccc(F)c(Cl)c2)CC1` [Compound 457, N-(3-chloro-4-fluorophenyl)-N-(4-(hydroxycarbamoyl)benzyl)-4-methylpiperidine-1-carboxamide], for which the figures for the IC50 on HDAC1 and on HDAC 6 were 3360 nM and 5 nM, respectively.

For the compound `O=C(NO)c1ccc(CN(C(=O)N2CCOCC2)c2ccc(F)c(Cl)c2)cc1` [Compound 458, N-(3-chloro-4-fluorophenyl)-N-(4-(hydroxycarbamoyl)benzyl)morpholine-4-carboxamide], the IC50 turned out to be 474 nM on HDAC1 and 1 nM on HDAC 6.

Regarding `CC1CCN(C(=O)N(Cc2ccc(C(=O)NO)cc2)c2cccc(C(F)(F)F)c2)CC1` [Compound 459, N-(4-(hydroxycarbamoyl)benzyl)-4-methyl-N-(3-(trifluoromethyl)phenyl)piperidine-1-carboxamide], the IC50 turned out to be 7350 nM at HDAC1 and 14 nM on HDAC 6.

Regarding `O=C(NO)c1ccc(CN(C(=O)N2CCCCC2)c2cccc(C(F)(F)F)c2)cc1` [Compound 460, N-(4-(hydroxycarbamoyl)benzyl)-N-(3-(trifluoromethyl)phenyl)piperidine-1-carboxamide], the figures for the IC50 on HDAC1 and at HDAC 6 were 2370 nM and 3 nM, respectively.

On to `O=C(NO)c1ccc(CN(C(=O)N2CCCCC2)c2cccc(-c3ccc4c(c3)OCO4)c2)cc1` [Compound 462, N-(3-(benzo[d][1,3]dioxol-5-yl)phenyl)-N-(4-(hydroxycarbamoyl)benzyl)piperidine-1-carboxamide], for which the IC50 at HDAC1 stood at 1930 nM; on HDAC 6 it was 14 nM.

As to `O=C(NO)c1ccc(CN(C(=O)N2CCC(O)CC2)c2cccc(-c3ccc4c(c3)OCO4)c2)cc1` [Compound 463, N-(3-(benzo[d][1,3]dioxol-5-yl)phenyl)-4-hydroxy-N-(4-(hydroxycarbamoyl)benzyl)piperidine-1-carboxamide], the IC50 at HDAC1 was 284 nM; on HDAC 6 it was 3 nM.

As to `CC1CN(C(=O)N(Cc2ccc(C(=O)NO)cc2)c2cccc(-c3ccc4c(c3)OCO4)c2)CC(C)O1` (stereo not shown) [Compound 464, N-(3-(benzo[d][1,3]dioxol-5-yl)phenyl)-N-(4-(hydroxycarbamoyl)benzyl)-2,6-dimethylmorpholine-4-carboxamide], the IC50 on HDAC1 was found to be 1170 nM; at HDAC 6 it was 10 nM.

With `O=C(NO)c1ccc(CN(C(=O)N2CCC(O)(c3ccccc3)CC2)c2cccc(-c3ccc4c(c3)OCO4)c2)cc1` [Compound 465, N-(3-(benzo[d][1,3]dioxol-5-yl)phenyl)-4-hydroxy-N-(4-(hydroxycarbamoyl)benzyl)-4-phenylpiperidine-1-carboxamide], the IC50 is 2280 nM at HDAC1 and 9 nM at HDAC 6.

Turning to `CN1CCN(C(=O)N(Cc2ccc(C(=O)NO)cc2)c2cccc(-c3ccc4c(c3)OCO4)c2)CC1` [Compound 466, N-(3-(benzo[d][1,3]dioxol-5-yl)phenyl)-N-(4-(hydroxycarbamoyl)benzyl)-4-methylpiperazine-1-carboxamide], the figures for the IC50 on HDAC1 and at HDAC 6 were 408 nM and 3 nM, respectively.

The values above are taken from patent publication US9878986B2, “Compounds for selective histone deacetylase inhibitors, and pharmaceutical composition comprising the same” (CHONG KUN DANG PHARMACEUTICAL CORP., priority 2013, dated 2018).
